The molecules below were run against T1, GLP-1R (Homo sapiens, UniProt P43220) (assay: EC20 GLP-1(9-36) PAM cAMP Assay: dose response of compound in the presence of fixed concentration of GLP-1(9-36)). Settings: GLP-1R CRE-bla CHO-K1 cells, in presence of fixed concentration of GLP-1(9-36), 30 min at 37° C.
T1 construct: host or cells: CRE-bla CHO-K1
Format: cell-based
Description: EC20 GLP-1(9-36) PAM cAMP Assay: Dose Response of Compound in the Presence of Fixed Concentration of GLP-1 (9-36).
GLP-1R CRE-bla CHO-K1 cells cultured in growth medium (DMEM-High glucose, 10% dialyzed FBS, 0.1 mM NEAA, 25 mM Hepes, 100 U/mL penicillin/100 μg/mL streptomycin, 5 μg/mL Blasticidin, 600 μg/mL Hygromycin) were trypsinized and plated in suspension into 384 well white flat bottom plates at 5000 cells/well in 12 μL assay buffer (Hanks Balanced Salt solution, 10 mM Hepes, 0.1% BSA, 10 pH 7.4). A 5× compound dose response curve (12-point) was generated in assay buffer containing 1.5 mM IBMX, 4% DMSO. GLP-1(9-36) was diluted to 4.2 μM in assay buffer containing 1.5 mM IBMX and 4% DMSO. The 5× compound dose response was added (3 μL), followed by 0.5 μL of GLP-1(9-36) and cells were incubated for 30 min at 37° C. Direct detection of cAMP was carried out using DiscoveRx HitHunter cAMP kit according to manufacturer's instructions and luminescence was read using a SpectraMax M5 plate reader. Luminescence was converted to total cAMP using a cAMP standard curve and data was analyzed by non-linear regression to determine the EC50 and Emax.

T1 sequence (P43220 24-463): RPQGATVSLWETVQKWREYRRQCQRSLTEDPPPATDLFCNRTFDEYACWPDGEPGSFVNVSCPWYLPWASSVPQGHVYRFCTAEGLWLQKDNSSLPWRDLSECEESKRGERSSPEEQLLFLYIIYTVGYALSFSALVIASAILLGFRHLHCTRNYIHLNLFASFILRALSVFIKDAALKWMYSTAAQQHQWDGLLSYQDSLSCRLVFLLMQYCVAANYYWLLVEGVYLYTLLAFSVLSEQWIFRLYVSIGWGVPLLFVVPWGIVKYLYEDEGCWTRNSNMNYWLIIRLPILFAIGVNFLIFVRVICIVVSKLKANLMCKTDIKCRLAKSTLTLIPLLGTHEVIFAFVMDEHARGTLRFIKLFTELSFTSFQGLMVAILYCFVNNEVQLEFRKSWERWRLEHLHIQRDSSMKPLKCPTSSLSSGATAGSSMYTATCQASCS
T1 sequence (P01275 100-127 partner limits assumed): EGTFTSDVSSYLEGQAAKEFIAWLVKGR

`CCCC1CCC(C2CC=C(c3cnc(-c4ccc(C[C@H](NC(=O)c5ccc(C(C)(C)C)s5)C(=O)NCCC(=O)O)cc4)nc3)CC2)CC1` (stereo partly drawn) [Compound 71] and `CC[C@H]1CC[C@H](C2CC=C(c3cnc(-c4ccc(C[C@H](NC(=O)c5ccc(C(C)(C)C)s5)C(=O)NCCC(=O)O)cc4)nc3)CC2)CC1` (stereo partly drawn) [Compound 107] cannot be ordered by EC50: < 500 nM for the first, < 500 nM for the second.

`CCCC1CCC(C2CC=C(c3cnc(-c4ccc(C[C@H](NC(=O)c5ccc(C6(C)CC6)cc5)C(=O)N5CC(C(=O)O)C5)cc4)nc3)CC2)CC1` (stereo partly drawn) [Compound 26] and `CCCC1CCC(C2CC=C(c3cnc(-c4ccc(C[C@H](NC(=O)c5ccc(CC)cc5)C(=O)N5CC(C(=O)O)C5)cc4)nc3)CC2)CC1` (stereo partly drawn) [Compound 21] cannot be ordered by EC50: < 500 nM for the first, < 500 nM for the second.

`CC[C@H]1CC[C@H](C2CC=C(c3cnc(-c4ccc(C[C@H](NC(=O)c5ccc(C(F)(F)F)s5)C(=O)N5CC(C(=O)O)C5)cc4)nc3)CC2)CC1` (stereo partly drawn) [Compound 98] and `CC[C@H]1CC[C@H](C2CC=C(c3cnc(-c4ccc(C[C@H](NC(=O)c5ccc(C(C)(C)C)s5)C(=O)N5CC(C(=O)O)C5)cc4)nc3)CC2)CC1` (mixture of isomers) [Compound 76, 1-((S)-2-(5-(tert-butyl)thiophene-2-carboxamido)-3-(4-(5-((1RS,1′r,4′RS)-4′-ethyl-[1,1′-bi(cyclohexan)]-3-en-4-yl)pyrimidin-2-yl)phenyl)propanoyl)azetidine-3-carboxylic acid] cannot be ordered by EC50: < 500 nM for the first, < 500 nM for the second.

Compared with `CCCc1ccc(C2CC=C(c3cnc(-c4ccc(C[C@H](NC(=O)c5ccc(C(C)(C)C)s5)C(=O)N5CC(C(=O)O)C5)cc4)nc3)CC2)cc1` (stereo partly drawn) [Compound 47], `CCCCC1CC=C(c2cnc(-c3ccc(C[C@H](NC(=O)c4ccc(C(C)(C)C)s4)C(=O)N4CC(C(=O)O)C4)cc3)nc2)CC1` (stereo partly drawn) [Compound 45] is higher in EC50: < 500 nM for the first, 500 to 2500 nM for the second. The first is the more potent here.

First: CCCC1CCC(C2CCC(c3cnc(-c4ccc(C[C@H](NC(=O)c5ccc(C(C)C)s5)C(=O)N5CC(C(=O)O)C5)cc4)nc3)CC2)CC1 (stereo partly drawn) [Compound 16]
Second: CCCC1CCC(C2CC=C(c3cnc(-c4ccc(C[C@H](NC(=O)c5ccc(C(C)C)s5)C(=O)N5CC(C(=O)O)C5)cc4)nc3)CC2)CC1 (stereo partly drawn) [Compound 17]
The EC50 of the first is higher: 500 to 2500 nM for the first, < 500 nM for the second.

First: CCCC1CCC(C2CC=C(c3cnc(-c4ccc(C[C@H](NC(=O)c5ccc(C(C)(C)C)s5)C(=O)O)cc4)nc3)CC2)CC1 (stereo partly drawn) [Compound 9]
Second: CC(C)(C)c1ccc(C(=O)N[C@@H](Cc2ccc(-c3ncc(C4=CCC([C@H]5CC[C@H](C)CC5)CC4)cn3)cc2)C(=O)O)s1 (mixture of isomers) [Compound 123, (S)-2-(5-(tert-butyl)thiophene-2-carboxamido)-3-(4-(5-((1RS,1′r,4′RS)-4′-methyl-[1,1′-bi(cyclohexan)]-3-en-4-yl)pyrimidin-2-yl)phenyl)propanoic acid]
The EC50 of the first is higher: 500 to 2500 nM for the first, < 500 nM for the second. The second is the more potent here.

`CC[C@H]1CC[C@H](C2CC=C(c3cnc(-c4ccc(C[C@H](NC(=O)c5ccc(C(C)(C)C)s5)C(=O)N5CC[C@H](C(=O)O)C5)cc4)nc3)CC2)CC1` (stereo partly drawn) [Compound 110, (S)-1-((S)-2-(5-(tert-butyl)thiophene-2-carboxamido)-3-(4-(5-((1RS,1′r,4′RS)-4′-ethyl-[1,1′-bi(cyclohexan)]-3-en-4-yl)pyrimidin-2-yl)phenyl)propanoyl)pyrrolidine-3-carboxylic acid] and `CCCC1CCC(C2CC=C(c3cnc(-c4ccc(C[C@H](NC(=O)c5ccc(C(C)(C)C)s5)C(=O)N5CC(C(=O)O)C5)cc4)nc3)CC2)CC1` (mixture of isomers) [Compound 6, 1-((2S)-2-(5-(tert-butyl)thiophene-2-carboxamido)-3-(4-(5-(4′-propyl-[1,1′-bi(cyclohexan)]-3-en-4-yl)pyrimidin-2-yl)phenyl)propanoyl)azetidine-3-carboxylic acid] cannot be ordered by EC50: < 500 nM for the first, < 500 nM for the second.

`C[C@@H](NC(=O)[C@H](Cc1ccc(-c2ncc(C3=CCC(C)(C)C=C3)cn2)cc1)NC(=O)c1ccc(C(C)(C)C)s1)C(=O)O` [Compound 60] and `CCC1CC=C(c2cnc(-c3ccc(C[C@H](NC(=O)c4ccc(C(C)(C)C)s4)C(=O)N[C@H](C)C(=O)O)cc3)nc2)CC1` (stereo partly drawn) [Compound 51] fall in the same range of EC50: 500 to 2500 nM for the first, 500 to 2500 nM for the second.

`CCc1ccc(C(=O)N[C@@H](Cc2ccc(-c3ncc(C4=CCC(C5CCC(C)(C)CC5)CC4)cn3)cc2)C(=O)N2CC(C(=O)O)C2)s1` (stereo partly drawn) [Compound 92] and `CCC[C@H]1CC[C@H](C2CC=C(c3cnc(-c4ccc(C[C@H](NC(=O)c5ccc(CC(C)C)s5)C(=O)N5CC(C(=O)O)C5)cc4)nc3)CC2)CC1` (stereo partly drawn) [Compound 118] cannot be ordered by EC50: < 500 nM for the first, < 500 nM for the second.

`CCC[C@H]1CC[C@H](C2CC=C(c3cnc(-c4ccc(C[C@H](NC(=O)c5ccc(C(C)(C)C)s5)C(=O)N5CC(C(=O)O)C5)cc4)nc3)C(C)C2)CC1` (stereo partly drawn) [Compound 87] and `CCCCCC1CCC(C2CC=C(c3cnc(-c4ccc(C[C@H](NC(=O)c5ccc(C(C)(C)C)s5)C(=O)N5CC(C(=O)O)C5)cc4)nc3)CC2)CC1` (mixture of isomers) [Compound 4, 1-((2S)-2-(5-(tert-butyl)thiophene-2-carboxamido)-3-(4-(5-(4′-pentyl-[1,1′-bi(cyclohexan)]-3-en-4-yl)pyrimidin-2-yl)phenyl)propanoyl)azetidine-3-carboxylic acid] cannot be ordered by EC50: < 500 nM for the first, < 500 nM for the second.

Compared with `CC(C)(C)c1ccc(C(=O)N[C@@H](Cc2ccc(-c3ncc(C4=CCC(C(C)(C)C)CC4)cn3)cc2)C(=O)N2CC(C(=O)O)C2)s1` (stereo partly drawn) [Compound 36], `CC(C)C1CC=C(c2cnc(-c3ccc(C[C@H](NC(=O)c4ccc(C(C)(C)C)s4)C(=O)N4CC(C(=O)O)C4)cc3)nc2)CC1` (stereo partly drawn) [Compound 40] is higher in EC50: < 500 nM for the first, 500 to 2500 nM for the second.

`CCCC1CC=C(c2cnc(-c3ccc(C[C@H](NC(=O)c4ccc(C(C)(C)C)s4)C(=O)N[C@H](C)C(=O)O)cc3)nc2)CC1` (stereo partly drawn) [Compound 52] and `CCCCCC1CC=C(c2cnc(-c3ccc(C[C@H](NC(=O)c4ccc(C(C)(C)C)s4)C(=O)N[C@H](C)C(=O)O)cc3)nc2)CC1` (stereo partly drawn) [Compound 53] fall in the same range of EC50: 500 to 2500 nM for the first, 500 to 2500 nM for the second.

`CC[C@H]1CC[C@H](C2CC=C(c3cnc(-c4ccc(C[C@H](NC(=O)c5ccc(C6CC6)s5)C(=O)N5CC(C(=O)O)C5)cc4)nc3)CC2)CC1` (stereo partly drawn) [Compound 97] and `CCC[C@H]1CC[C@H](C2CC=C(c3cnc(-c4ccc(C[C@H](NC(=O)c5ccc(C6CC6)s5)C(=O)N5CC(C(=O)O)C5)cc4)nc3)CC2)CC1` (stereo partly drawn) [Compound 117] cannot be ordered by EC50: < 500 nM for the first, < 500 nM for the second.

`CCCC1CCC(C2CCC(c3cnc(-c4ccc(C[C@H](NC(=O)c5ccc(CC)cc5)C(=O)N5CC(C(=O)O)C5)cc4)nc3)CC2)CC1` (stereo partly drawn) [Compound 20] and `CCCC1CCC(C2CCC(c3cnc(-c4ccc(C[C@H](NC(=O)c5ccc(C(C)(C)C)nc5)C(=O)N5CC(C(=O)O)C5)cc4)nc3)CC2)CC1` (stereo partly drawn) [Compound 28] fall in the same range of EC50: 5000 to 10000 nM for the first, 5000 to 10000 nM for the second.

First: CC[C@H]1CC[C@H](C2CC=C(c3cnc(-c4ccc(C[C@H](NC(=O)c5ccc(CC(C)C)cc5)C(=O)N5CC(C(=O)O)C5)cc4)nc3)CC2)CC1 (stereo partly drawn) [Compound 102]
Second: CCCC1CCC(C2CC=C(c3cnc(-c4ccc(C[C@H](NC(=O)c5ccc(CC(C)C)cc5)C(=O)N5CC(C(=O)O)C5)cc4)nc3)CC2)CC1 (stereo partly drawn) [Compound 23]
The EC50 of the first is higher: 500 to 2500 nM for the first, < 500 nM for the second.

Compared with `C[C@@H](NC(=O)[C@H](Cc1ccc(-c2ncc(C3=CCC(NC(=O)OC(C)(C)C)CC3)cn2)cc1)NC(=O)c1ccc(C(C)(C)C)s1)C(=O)O` (stereo partly drawn) [Compound 64], `CC(=O)C1CC=C(c2cnc(-c3ccc(C[C@H](NC(=O)c4ccc(C(C)(C)C)s4)C(=O)N[C@H](C)C(=O)O)cc3)nc2)CC1` (stereo partly drawn) [Compound 61] is lower in EC50: 2500 to 5000 nM for the first, < 500 nM for the second.

Compared with `CC(C)(C)c1ccc(C(=O)N[C@@H](Cc2ccc(-c3ncc(C4=CCC([C@H]5CC[C@H](C)CC5)CC4)cn3)cc2)C(=O)NCCC(=O)O)s1` (stereo partly drawn) [Compound 113], `CC(C)(C)c1ccc(C(=O)N[C@@H](Cc2ccc(-c3ncc(C4=CCC([C@H]5CC[C@H](C)CC5)CC4)cn3)cc2)C(=O)NCC2CCNC2)s1` (stereo partly drawn) [Compound 114] is higher in EC50: < 500 nM for the first, 500 to 2500 nM for the second. The first is the more potent here.

First: C[C@@H](NC(=O)[C@H](Cc1ccc(-c2ncc(C3=Cc4ccccc4C3)cn2)cc1)NC(=O)c1ccc(C(C)(C)C)s1)C(=O)O [Compound 50]
Second: C[C@@H](NC(=O)[C@H](Cc1ccc(-c2ncc(C3=CC(=O)CC(c4ccccc4)C3)cn2)cc1)NC(=O)c1ccc(C(C)(C)C)s1)C(=O)O (stereo partly drawn) [Compound 49]
The EC50 of the first is lower: 500 to 2500 nM for the first, 5000 to 10000 nM for the second. The first is the more potent here.

`CCCC1CCC(C2CC=C(c3cnc(-c4ccc(C[C@H](NC(=O)c5ccc(C(C)(C)C)s5)C(=O)N5C6CCC5C(C(=O)O)C6)cc4)nc3)CC2)CC1` (stereo partly drawn) [Compound 80] and `CCCCCC1CCC(C2CC=C(c3cnc(-c4ccc(C[C@H](NC(=O)c5ccc(C(C)(C)C)s5)C(=O)N5CCC[C@H]5C(=O)O)cc4)nc3)CC2)CC1` (stereo partly drawn) [Compound 5] fall in the same range of EC50: 500 to 2500 nM for the first, 500 to 2500 nM for the second.

`CC[C@H]1CC[C@H](C2CC=C(c3cnc(-c4ccc(C[C@H](NC(=O)c5ccc(C(C)(C)C)cc5)C(=O)N5CC(C(=O)O)C5)cc4)nc3)CC2)CC1` (stereo partly drawn) [Compound 94] and `CCCC1CCC(C2CC=C(c3cnc(-c4ccc(C[C@H](NC(=O)c5ccc(OC(C)C)cc5)C(=O)N5CC(C(=O)O)C5)cc4)nc3)CC2)CC1` (stereo partly drawn) [Compound 27] cannot be ordered by EC50: < 500 nM for the first, < 500 nM for the second.

First: CCCC1CCC(C2CC=C(c3cnc(-c4ccc(C[C@H](NC(=O)c5cnc(C(C)(C)C)nc5)C(=O)N5CC(C(=O)O)C5)cc4)nc3)CC2)CC1 (stereo partly drawn) [Compound 15]
Second: CCCC1CCC(C2CCC(c3cnc(-c4ccc(C[C@H](NC(=O)c5cnn(C(C)(C)C)c5)C(=O)N5CC(C(=O)O)C5)cc4)nc3)CC2)CC1 (stereo partly drawn) [Compound 18]
The EC50 of the first is lower: < 500 nM for the first, 5000 to 10000 nM for the second.
